Measurements reported in patent publication EP4810052A2, “HCRHR2 SELECTIVE POLYPEPTIDES” (Gubra A/S, priority 2023, dated 2026).
Like-named read-outs stand apart in the source and are kept apart here. Starred links: 1 amine or outer side, 2 acyl side, 3 side chain; linkers in the order of their positions; H or OH if unused. Non-standard residues stand in square brackets, D forms with d. Residues, ends and D or L forms follow the SMILES beside them. Groups on a side chain read outwards from the residue. *: point of attachment. C20 diacid = O=C(O)CCCCCCCCCCCCCCCCCCC(=O)*; γGlu = O=C(O)[C@H](CCC(=O)[*:2])N[*:1]; NMeI = CC[C@H](C)[C@H](NC)C(=O)O; AEEA = NCCOCCOCC(=O)O

How the values were obtained:
[1] = Chemical stability of purified peptides (RP-UHPLC main peak purity loss); assay type: physicochemical
Method in brief: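 Peptides at about 1.0 mg/ml in 50 mM phosphate buffer pH 7.5, or pH-adjusted for the pH series, were incubated at 40 °C for 14 and 28 days. Main-peak purity was taken as main-peak area over total area by RP-UHPLC (UV 215 nm, C8, 50 °C). Purity loss was calculated versus T0.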

PK in mice = assay type: in vivo; set-up: T½ / MRT: unit: h; conditions: for MRT / T½ / clearance / half-life / Cmax / Tmax: Mouse; for bioavailability / clearance / half-life / Cmax / Tmax: male, in vivo; for bioavailability: NMRI, mouse; for clearance / half-life / Cmax / Tmax: NMRI/RjHan; for half-life: read-out: T½ (converted)
Description: Lean male NMRI/RjHan mice were obtained from JanVier (JanVier Labs, France) at 6 weeks of age. The animals were single housed under a 12/12 h dark-light cycle, light off at 3 PM. Room temperature was controlled to 22°C ± 1°C, with 60 % ± 20% humidity. Animals had ad libitum access to regular rodent chow (Altromin 1324, Brogaarden, Denmark) and tap water.
After 2 weeks of acclimatization, the animals were randomized into treatment groups (n=9 per group) based on body weight. Animals were dosed IV with one peptide and SC with another peptide (15 or 50 nmol/kg) Plasma samples were collected for PK analysis at times 0.17, 1, 3, 6, 24, 30, 48, 72 and 96 hours post dosing in a sparse sampling design with 3 mice per group per timepoint. Plasma samples were analyzed using LC-MSMS and PK parameters were estimated by Non-Compartmental Analysis (NCA).

[2] = Dynamic Light Scattering (DLS) of peptide oligomerisation/particle formation; assay type: physicochemical; conditions: for PD (%) / Rh (nm): average of three replica
Description: Samples were prepared by dissolving 800 nmol of each peptide in 400 µl 50 mM phosphate pH 8.0 to a concentration of 2000 µM (ca 10 mg/ml). After fully dissolution for 2 hours on a rocking table, samples were adjusted to pH 7.5 and filtrated through a 0.2 µm Whatman Anotop filter. Comparators were commercially available liraglutide drug product (Victoza®, Novo Nordisk) pH 8.2, and an aliquot of this drug product adjusted to pH 6.7. These samples were filtrated through a 0.02 µm Whatman Anotop filter.
Samples were pipetted as triplicate of 30 µl to an Aurora 384 well microtiter plate, which was centrifuged for 2 minutes at 2200 rpm and then sealed with a Thermo sealing tape 235307. DLS measurements were done in a Wyatt DynaPro platereader III with the following parameters:
The microtiter plate was incubated in a Grant-bio Thermo Shaker PHMP-4 at 40°C with 700 rpm continuous shaking before subsequent DLS measurements. Data analysis was done using Wyatt Dynamics software ver. 7.10.1.21.
Samples were prepared and measured as described in procedure. The hydrodynamic radii (Rh) and associated polydispersity (PD) resulting from cumulant analysis (assuming one species) are shown in the Table 8 as averages of three replica. T0 indicates the measurement at time zero after sample preparation; T5 indicates the measurements of five days of incubation as described above.

hCRHR1 [3] = target: T1, hCRHR1 (Homo sapiens, UniProt P34998); test: cAMP potency, transiently transfected CHO-K1 cells, hCRHR1; assay type: cell-based; set-up: DYK (FLAG); host or cells: CHO-K1, transiently transfected; conditions: transiently transfected CHO-K1, average n=3; read-out: Transient cell system EC50 (nM) hCR HR1
T1 sequence (P34998 24-415): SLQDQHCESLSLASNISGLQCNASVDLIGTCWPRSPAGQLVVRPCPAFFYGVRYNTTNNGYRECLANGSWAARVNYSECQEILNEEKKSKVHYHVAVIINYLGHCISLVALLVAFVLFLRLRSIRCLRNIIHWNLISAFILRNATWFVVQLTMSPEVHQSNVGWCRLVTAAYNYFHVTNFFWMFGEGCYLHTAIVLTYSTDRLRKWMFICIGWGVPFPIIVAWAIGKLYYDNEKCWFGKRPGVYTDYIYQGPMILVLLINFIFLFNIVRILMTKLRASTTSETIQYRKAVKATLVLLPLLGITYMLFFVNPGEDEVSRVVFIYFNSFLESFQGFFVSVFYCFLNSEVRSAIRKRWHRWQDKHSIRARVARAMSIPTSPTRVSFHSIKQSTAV

hCRHR1 [4] = target: T1, hCRHR1; test: HTRF cAMP assay, determination of hCRHR1 potency (peptide libraries 5 conc., purified peptides 11 conc.); assay type: cell-based
Method in brief: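 CHO-K1 cells stably expressing human CRHR1, thawed from frozen stocks just before use, were stimulated in suspension with agonist peptides. cAMP was measured by HTRF competitive immunoassay (cryptate anti-cAMP antibody vs d2-cAMP).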

[5] = pH 7.5, 40°C, 14 days, first value of cell
[6] = pH 7.5, 40°C, 28 days, second value of cell
[7] = T0, time zero after sample preparation
[8] = T5, five days incubation at 40°C with continuous shaking
[9] = purified peptides, CHO-K1 cells stably expressing hCRHR1, cAMP HTRF, read-out: hCRHR1 EC50
[10] = stable cell system, Table 10, read-out: Stable EC50 (nM) hCRHR 1

CC[C@H](C)[C@H](NC)C(=O)N[C@H](C(=O)N[C@@H](CC(C)C)C(=O)N[C@@H](CO)C(=O)N[C@@H](CC(C)C)C(=O)N[C@@H](CC(=O)O)C(=O)N[C@H](C(=O)N1CCC[C@H]1C(=O)N[C@H](C(=O)NCC(=O)N[C@@H](CC(C)C)C(=O)N[C@@H](CC(C)C)C(=O)N[C@@H](CCC(N)=O)C(=O)N[C@H](C(=O)N[C@@H](CC(C)C)C(=O)N[C@@H](CC(C)C)C(=O)N[C@@H](CCC(=O)O)C(=O)N[C@@H](CCC(N)=O)C(=O)N[C@@H](C)C(=O)N[C@@H](CCCNC(=N)N)C(=O)N[C@@H](C)C(=O)N[C@@H](CCCNC(=N)N)C(=O)N[C@@H](C)C(=O)N[C@@H](C)C(=O)N[C@@H](CCCNC(=N)N)C(=O)N[C@@H](CCC(=O)O)C(=O)N[C@@H](CCC(N)=O)C(=O)N[C@@H](C)C(=O)N[C@H](C(=O)N[C@@H](CCCCNC(=O)COCCOCCNC(=O)COCCOCCNC(=O)CC[C@H](NC(=O)CC[C@H](NC(=O)CCCCCCCCCCCCCCCCCCC(=O)O)C(=O)O)C(=O)O)C(=O)N[C@@H](CC(N)=O)C(=O)N[C@@H](C)C(=O)N[C@@H](CCC(=O)O)C(=O)N[C@H](C(=O)N[C@@H](CC(C)C)C(=O)N[C@@H](C)C(=O)N[C@@H](CCC(=O)O)C(=O)N[C@H](C(N)=O)C(C)C)[C@@H](C)CC)[C@@H](C)O)[C@@H](C)CC)[C@@H](C)CC)C(C)C)C(C)C [SEQ ID NO: 6] (H-[NMeI]VLSLDVPIGLLQILLEQARARAAREQATK([AEEA-AEEA-γGlu-γGlu-C20 diacid])NAEILAEV-NH2)
Purity loss (RP-UPLC analysis) T14-T0 (%) ([1]; pH 7.0, 40°C, 14 days): -1.8% | Purity loss (RP-UPLC analysis) T28-T0 (%) ([1]; pH 7.0, 40°C, 28 days): -2.0% | Purity loss (RP-UPLC analysis) T14-T0 (%) ([1]; pH 7.5, 40°C, 14 days): -1.1% | Chemical stability at pH 7.5 after 14 days at 40°C (% degradation) [1, 5]: -1.0% | Purity loss (RP-UPLC analysis) T28-T0 (%) ([1]; pH 7.5, 40°C, 28 days): -2.6% | Chemical stability at pH 7.5 after 28 days at 40°C (% degradation) [1, 6]: -3.5% | Purity loss (RP-UPLC analysis) T14-T0 (%) ([1]; pH 8.0, 40°C, 14 days): -3.1% | Purity loss (RP-UPLC analysis) T28-T0 (%) ([1]; pH 8.0, 40°C, 28 days): -7.1% | MRT (PK in mice): 16 | T½ (PK in mice): 14.7 | bioavailability (PK in mice; sc): 78% | clearance (PK in mice; iv, 15 nmol/kg i.v.): 3.3 mL/h/kg | half-life (PK in mice; iv, 15 nmol/kg i.v.): 14.7 h | Cmax (PK in mice; sc, 15 nmol/kg s.c.): 0.09 µM | Tmax (PK in mice; sc, 15 nmol/kg s.c.): 24 h | half-life (PK in mice; sc, 15 nmol/kg s.c.): 16 h | particle size / hydrodynamic radii (DLS) ([2]; 2000 µM, pH 7.5, five days incubation at 40°C with continuous shaking): formed larger particles and several species (multimodal) | PD (%) [2, 7]: 38.5% | Rh (nm) [2, 7]: 5.8 nm | PD (%) [2, 8]: Multimodal | Rh (nm) [2, 8]: 30.6 nm | EC50 (hCRHR1 [3]): > 1000 nM | EC50 (hCRHR1 [4]; [9]): > 5000 nM | EC50 (hCRHR1 [4]; [10]): > 5000 nM

CC[C@H](C)[C@H](N)C(=O)N[C@H](C(=O)N[C@@H](CC(C)C)C(=O)N[C@@H](CO)C(=O)N[C@@H](CC(C)C)C(=O)N[C@@H](CC(=O)O)C(=O)N[C@H](C(=O)N1CCC[C@H]1C(=O)N[C@H](C(=O)NCC(=O)N[C@@H](CC(C)C)C(=O)N[C@@H](CC(C)C)C(=O)N[C@@H](CCC(N)=O)C(=O)N[C@H](C(=O)N[C@@H](CC(C)C)C(=O)N[C@@H](CC(C)C)C(=O)N[C@@H](CCC(=O)O)C(=O)N[C@@H](CCC(N)=O)C(=O)N[C@@H](C)C(=O)N[C@@H](CCCNC(=N)N)C(=O)N[C@@H](C)C(=O)N[C@@H](CCCNC(=N)N)C(=O)N[C@@H](C)C(=O)N[C@@H](C)C(=O)N[C@@H](CCCNC(=N)N)C(=O)N[C@@H](CCC(=O)O)C(=O)N[C@@H](CCC(N)=O)C(=O)N[C@@H](C)C(=O)N[C@@H](CCCCNC(=O)COCCOCCNC(=O)COCCOCCNC(=O)CC[C@H](NC(=O)CC[C@H](NC(=O)CCCCCCCCCCCCCCCCCCC(=O)O)C(=O)O)C(=O)O)C(=O)N[C@H](C(=O)N[C@@H](CC(N)=O)C(=O)N[C@@H](C)C(=O)N[C@@H](CCC(=O)O)C(=O)N[C@H](C(=O)N[C@@H](CC(C)C)C(=O)N[C@@H](C)C(=O)N[C@@H](CCC(=O)O)C(=O)N[C@H](C(N)=O)C(C)C)[C@@H](C)CC)[C@@H](C)O)[C@@H](C)CC)[C@@H](C)CC)C(C)C)C(C)C [SEQ ID NO: 3] (H-IVLSLDVPIGLLQILLEQARARAAREQAK([AEEA-AEEA-γGlu-γGlu-C20 diacid])TNAEILAEV-NH2)
Chemical stability at pH 7.5 after 14 days at 40°C (% degradation) [1, 5]: -6.1% | Chemical stability at pH 7.5 after 28 days at 40°C (% degradation) [1, 6]: -15% | Chemical stability at pH 7.5 after 14 days at 40°C (% degradation) ([1]; pH 7.5, 14 days, 40°C): -6.1% | Chemical stability at pH 7.5 after 28 days at 40°C (% degradation) ([1]; pH 7.5, 28 days, 40°C): -15% | MRT (PK in mice): 17.5 | T½ (PK in mice): 13.5 | bioavailability (PK in mice; sc): 43.1% | clearance (PK in mice; iv, 50 nmol/kg i.v.): < 10 mL/h/kg | half-life (PK in mice; iv, 50 nmol/kg i.v.): 13.5 h | Cmax (PK in mice; sc, 50 nmol/kg s.c.): 0.141 µM | Tmax (PK in mice; sc, 50 nmol/kg s.c.): 24 h | half-life (PK in mice; sc, 50 nmol/kg s.c.): 11.4 h | EC50 (hCRHR1 [3]): > 1000 nM | EC50 (hCRHR1 [4]; Table 3, matched molecular pairs X^38 L vs Nle, peptide library of Example 4, read-out: hCRHR1 pEC50 (converted)): 25100 nM | EC50 (hCRHR1 [4]; Table 5, purified peptides, read-out: hCRHR1 EC50): > 5000 nM | EC50 (hCRHR1 [4]; [9]): > 5000 nM | EC50 (hCRHR1 [4]; [10]): > 5000 nM
